# In PMC8589421, “Impact of Type II LRRK2 inhibitors on signaling and mitophagy” (Biochemical Journal, 2021):
# Key:
# Type in all cases: cell-based, mouse
# [1] = test system: basal mitophagy, LRRK2[G2019S] MEFs; test: mito-QC basal mitophagy in LRRK2[G2019S] knock-in primary MEFs; settings: 24 h, 30–300 nM GZD-824, GSK3357679A 100 nM positive control
# Procedure: (§1) To assess mitophagy, wild type, G2019S knock in, and LRRK2 knock out primary mouse embryonic fibroblasts (MEFs) were derived, from time-mated pregnant females at E12.5 as previously described. Briefly, cells were plated on glass coverslips and incubated with DMEM (Gibco, 11960-044) supplemented with 10% FBS, 2 mM L-Glutamine (Gibco, 2503-081), 1% non-essential amino acids (Gibco, 11140-035), 1% Antibiotics (Penicillin/Streptomycin 100 U/ml penicillin and 100 µg/ml streptomycin; Gibco), and 150 µM β-Mercaptoethanol (Gibco, 21985-023) at 37°C under a humidified 5% CO2 atmosphere. […] GSK3357679A 100 nM (Ding et al., in prep) was used as a positive control. At the end of the treatment, MEFs were briefly washed twice in DPBS (Gibco, 14190-094), and fixed in 3.7% Paraformaldehyde pH 7.00 (Sigma, P6148), 200 mM HEPES, for 20 min. Cells were then washed two times with DMEM, 10 mM HEPES, and then incubated for 10 min with DMEM, 10 mM HEPES. […] Images were acquired using a Nikon Eclipse Ti-S fluorescence microscope with a 63× objective. Images were analyzed using the mito-QC counter as previously described. Experiments were performed in 3–4 independent experiments and data was analyzed with a one-way ANOVA followed by a Dunnett's multiple comparison test using the GraphPad Prism software (version 8.4.3 (686)).
# [2] = test system: basal mitophagy, wild type MEFs; test: mito-QC basal mitophagy in wild-type primary MEFs; settings: 24 h, 30–300 nM GZD-824, GSK3357679A 100 nM positive control
# Procedure: as §1
# [3] = test system: LRRK2 Ser935 phosphorylation, LRRK2[G2019S]; test: LRRK2 Ser935 phospho-immunoblot in LRRK2[G2019S] knock-in MEFs; settings: Figure 4B
# Procedure: Wild-type and homozygous LRRK2 [R1441C] (Jax, stock number: 009346), LRRK2[G2019S] Taconic, (model 13940) and LRRK2 [A2016T] (Jax, stock number: 021828)[7] knock-in MEF cells were isolated from littermate-matched mouse embryos on a C57BL/6J background at day E12.5 as described previously. MEFs were grown in Dulbecco's modified Eagle medium (DMEM GIBCO, #11960-085) containing 10% (by vol) fetal bovine serum (FBS), 2 mM L-glutamine, 100 U/ml penicillin, and […] streptomycin supplemented with non-essential amino acids and 1 mM sodium pyruvate. Human embryonic kidney 293 (HEK293) (#ATCC CRL-1573) and HeLa (#ATCC CCL-2) cells were purchased from American Tissue Culture Collection (ATCC) and cultured in DMEM containing 10% (by vol) FBS, 2 mM L-glutamine, 100 U/ml penicillin, and […] streptomycin. […]
# Cells were lysed in an ice-cold lysis buffer containing 50 mM Tris–HCl, pH 7.4, 1% (by vol) Triton X-100, 10% (by vol) glycerol, 150 mM NaCl, 1 mM sodium orthovanadate, 50 mM NaF, 10 mM 2-glycerophosphate, 5 mM sodium pyrophosphate, 1 µg/ml microcystin-LR, and cOmplete EDTA-free protease inhibitor cocktail (Roche, #11836170001). […] Supernatants were quantified by Bradford assay (Bio-Rad Protein Assay Dye Reagent Concentrate #5000006) and samples prepared in 1× lithium dodecyl sulfate sample buffer final concentration (NuPage LDS Sample buffer 4× Invitrogen, #NP0008). […]
smiles,measurement,setting,value
Cc1ccc(C(=O)Nc2ccc(CN3CCN(C)CC3)c(C(F)(F)F)c2)cc1C#Cc1cnc2[nH]ncc2c1 [GZD-824],stimulation of basal mitophagy,[1],~2 fold
same,stimulation of basal mitophagy,[2],~2 fold
same,effect on Ser935 phosphorylation in LRRK2[G2019S] cells,[3],did not impact Ser935 phosphorylation
